# Test results: the NIST ThermoML archive (doi:10.1021/je060271a)
# Numbers after ± are expanded uncertainties.
# Settings: 323.14 K, Liquid, Vibrating tube method
compound,measurement,setting,value
CCCCCCC(=O)OCC(COC(=O)CCCCCC)(COC(=O)CCCCCC)COC(=O)CCCCCC [pentaerythritol tetraheptanoate],mass density,18264 kPa,967.6 ± 1.2 kg/m3
same,mass density,18279 kPa,967.6 ± 1.2 kg/m3
same,mass density,18292 kPa,967.7 ± 1.2 kg/m3
same,mass density,18304 kPa,967.6 ± 1.2 kg/m3
same,mass density,18320 kPa,967.6 ± 1.2 kg/m3
same,mass density,18332 kPa,967.6 ± 1.2 kg/m3
same,mass density,18347 kPa,967.6 ± 1.2 kg/m3
same,mass density,18360 kPa,967.7 ± 1.2 kg/m3
same,mass density,18373 kPa,967.7 ± 1.2 kg/m3
same,mass density,18385 kPa,967.8 ± 1.2 kg/m3
same,mass density,18401 kPa,967.7 ± 1.2 kg/m3
same,mass density,18413 kPa,967.8 ± 1.2 kg/m3
same,mass density,18426 kPa,967.6 ± 1.2 kg/m3
same,mass density,18442 kPa,967.8 ± 1.2 kg/m3
same,mass density,18454 kPa,967.7 ± 1.2 kg/m3
same,mass density,18469 kPa,967.7 ± 1.2 kg/m3
same,mass density,18482 kPa,967.7 ± 1.2 kg/m3
same,mass density,18495 kPa,967.7 ± 1.2 kg/m3
same,mass density,18511 kPa,967.7 ± 1.2 kg/m3
same,mass density,18920 kPa,967.9 ± 1.2 kg/m3
same,mass density,18933 kPa,968 ± 1.2 kg/m3
same,mass density,18964 kPa,968.1 ± 1.2 kg/m3
same,mass density,19110 kPa,968.3 ± 1.2 kg/m3
same,mass density,19518 kPa,968.3 ± 1.2 kg/m3
same,mass density,19532 kPa,968.3 ± 1.2 kg/m3
same,mass density,19550 kPa,968.4 ± 1.2 kg/m3
same,mass density,19962 kPa,968.7 ± 1.2 kg/m3
same,mass density,20010 kPa,968.7 ± 1.2 kg/m3
same,mass density,20615 kPa,969.1 ± 1.2 kg/m3
same,mass density,20951 kPa,969.3 ± 1.2 kg/m3
same,mass density,20968 kPa,969.2 ± 1.2 kg/m3
same,mass density,21002 kPa,969.4 ± 1.2 kg/m3
same,mass density,21114 kPa,969.2 ± 1.2 kg/m3
same,mass density,21149 kPa,969.4 ± 1.2 kg/m3
same,mass density,21166 kPa,969.4 ± 1.2 kg/m3
same,mass density,21187 kPa,969.4 ± 1.2 kg/m3
same,mass density,21204 kPa,969.5 ± 1.2 kg/m3
same,mass density,21222 kPa,969.3 ± 1.2 kg/m3
same,mass density,21243 kPa,969.4 ± 1.2 kg/m3
same,mass density,21261 kPa,969.4 ± 1.2 kg/m3
same,mass density,21812 kPa,969.9 ± 1.2 kg/m3
same,mass density,21889 kPa,969.8 ± 1.2 kg/m3
same,mass density,21912 kPa,969.9 ± 1.2 kg/m3
same,mass density,22010 kPa,969.9 ± 1.2 kg/m3
same,mass density,22028 kPa,970 ± 1.2 kg/m3
same,mass density,22051 kPa,969.9 ± 1.2 kg/m3
same,mass density,22255 kPa,970 ± 1.2 kg/m3
same,mass density,22294 kPa,970.1 ± 1.2 kg/m3
same,mass density,22673 kPa,970.3 ± 1.2 kg/m3
same,mass density,22693 kPa,970.2 ± 1.2 kg/m3
same,mass density,22738 kPa,970.5 ± 1.2 kg/m3
same,mass density,22934 kPa,970.5 ± 1.2 kg/m3
same,mass density,22955 kPa,970.5 ± 1.2 kg/m3
same,mass density,22976 kPa,970.5 ± 1.2 kg/m3
same,mass density,23001 kPa,970.4 ± 1.2 kg/m3
same,mass density,23022 kPa,970.6 ± 1.2 kg/m3
same,mass density,23064 kPa,970.5 ± 1.2 kg/m3
same,mass density,23111 kPa,970.6 ± 1.2 kg/m3
same,mass density,23132 kPa,970.6 ± 1.2 kg/m3
same,mass density,23157 kPa,970.6 ± 1.2 kg/m3
same,mass density,23178 kPa,970.5 ± 1.2 kg/m3
same,mass density,23200 kPa,970.6 ± 1.2 kg/m3
same,mass density,23225 kPa,970.5 ± 1.2 kg/m3
same,mass density,23246 kPa,970.5 ± 1.2 kg/m3
same,mass density,23268 kPa,970.7 ± 1.2 kg/m3
same,mass density,23294 kPa,970.7 ± 1.2 kg/m3
same,mass density,23315 kPa,970.7 ± 1.2 kg/m3
same,mass density,23358 kPa,970.7 ± 1.2 kg/m3
same,mass density,23384 kPa,970.8 ± 1.2 kg/m3
same,mass density,23431 kPa,970.8 ± 1.2 kg/m3
same,mass density,23453 kPa,970.8 ± 1.2 kg/m3
same,mass density,23474 kPa,970.7 ± 1.2 kg/m3
same,mass density,23496 kPa,970.9 ± 1.2 kg/m3
same,mass density,23522 kPa,970.8 ± 1.2 kg/m3
same,mass density,23544 kPa,970.8 ± 1.2 kg/m3
same,mass density,23566 kPa,970.8 ± 1.2 kg/m3
same,mass density,23592 kPa,970.8 ± 1.2 kg/m3
same,mass density,23614 kPa,970.8 ± 1.2 kg/m3
same,mass density,23755 kPa,971 ± 1.2 kg/m3
same,mass density,23777 kPa,970.9 ± 1.2 kg/m3
same,mass density,23805 kPa,971.1 ± 1.2 kg/m3
same,mass density,23827 kPa,971 ± 1.2 kg/m3
same,mass density,23853 kPa,970.9 ± 1.2 kg/m3
same,mass density,23875 kPa,971 ± 1.2 kg/m3
same,mass density,23898 kPa,971.1 ± 1.2 kg/m3
same,mass density,23921 kPa,971 ± 1.2 kg/m3
same,mass density,23948 kPa,971 ± 1.2 kg/m3
same,mass density,24439 kPa,971.4 ± 1.2 kg/m3
same,mass density,24490 kPa,971.3 ± 1.2 kg/m3
same,mass density,24592 kPa,971.5 ± 1.2 kg/m3
same,mass density,24645 kPa,971.6 ± 1.2 kg/m3
same,mass density,24693 kPa,971.5 ± 1.2 kg/m3
same,mass density,24722 kPa,971.5 ± 1.2 kg/m3
same,mass density,24746 kPa,971.5 ± 1.2 kg/m3
same,mass density,24799 kPa,971.6 ± 1.2 kg/m3
same,mass density,24824 kPa,971.6 ± 1.2 kg/m3
same,mass density,24848 kPa,971.6 ± 1.2 kg/m3
same,mass density,24874 kPa,971.5 ± 1.2 kg/m3
same,mass density,24903 kPa,971.6 ± 1.2 kg/m3
same,mass density,24928 kPa,971.6 ± 1.2 kg/m3
same,mass density,24957 kPa,971.7 ± 1.2 kg/m3
same,mass density,24981 kPa,971.5 ± 1.2 kg/m3
same,mass density,25006 kPa,971.7 ± 1.2 kg/m3
same,mass density,25031 kPa,971.8 ± 1.2 kg/m3
same,mass density,25061 kPa,971.7 ± 1.2 kg/m3
same,mass density,25387 kPa,971.9 ± 1.2 kg/m3
same,mass density,25413 kPa,972 ± 1.2 kg/m3
same,mass density,25633 kPa,972.1 ± 1.2 kg/m3
same,mass density,25717 kPa,972 ± 1.2 kg/m3
same,mass density,25828 kPa,972 ± 1.2 kg/m3
same,mass density,25860 kPa,972.3 ± 1.2 kg/m3
same,mass density,25888 kPa,972.3 ± 1.2 kg/m3
